In patent publication US4198429A, “Esters of 5-methyl-10,11-dihydroprostaglandin-A1” (Hoechst Aktiengesellschaft, priority 1976, dated 1980):

Assays:
Assay type in all cases: in vivo, Guinea pig
[1] = system: bronchospasm caused by histamine; assay: Bronchospasmolytic activity, modified Konzett-Rossler test, histamine-induced bronchospasm; details: dose inhibiting effect of asthmogenic agent to 50% of initial value, male white Guinea pigs, anesthesized, V. jugularis
Description: (§1) To test the bronchospasmolytic activity of the compounds of the invention the following experiments were carried through:
(§2) TEST ACCORDING TO KONZETT-ROSSLER
(§3) To test the bronchospasmolytic activity the respiratory volume was measured by the method of Konzett-Rossler, according to which the air volume is measured which is taken up by the lung when the maximum inflation pressure is maintained constant and a constant volume is offered by high pressure respiration. Capacity variations in the respiratory tract result in an increase or decrease of the amount of air taken up by the lung under the given constant inflation pressure.
(§4) As test animals male white Guinea pigs having a weight of from 400 to 500 grams were used which had been anesthesized with 10 mg/kg i.p. of Evipan and 200 mg/kg i.p. of urethane. The substance to be tested was administered by means of a catheter in the V. jugularis. The positive pressure respiration depended on the normal respiratory volume of the test animal and could be adapted suitably and readily to the individual test animal. In the tests carried through the pressure indicated by Rosenthal and Dervinis of 80 mm H2 O was used. During the recovery phase after a bronchospastic reaction the flexible hose leading to the water manometer was clamped off for a short period of time in order to open deflating lung segments. The respiration frequency amounted to 64-72 per minute. The respiratory volume was measured according to the slightly modified Konzett-Rossler method wherein the piston recorder was replaced by a back-pressure tube according to Fleisch (type 0000). The occuring pressure difference was recorded by a difference pressure recorder of the type Statham PM 97 CT. To record the measured values a multi-channel recorder of Messrs. Hellige was used. The substance to be tested was used in the form of a standard solution in absolute alcohol. Directly prior to the start of the test it was diluted to the required final concentration with phosphate buffer (pH 7.4). The asthmogenic solution was prepared with double distilled water.
(§5) As asthmogenic agents histamine dihydrochloride, acetyl choline chloride and sertonine creatinine sulfate were used. To reduce the error resulting from individual differences in the bronchospasm intensity with a uniform dose of asthmogenic agent, the dosage unit was chosen such that an about 70 to 80% decrease of the absorption capacity of the lung was obtained. The experimental data were subjected to the regression analysis according to the probit transformation and the equation of the straight lines of regression y=a+b log x was calculated. In this manner the average inhibition dose (ID50 =the dose which inhibits the effect of the asthmogenic agent to 50% of the initial value) was found. Additionally, the results obtained by carrying out a simple variance analysis in the Duncan Test were compared with the control.

bronchial muscles = assay: Bronchospasmolytic effect and its duration, modified Konzett-Rossler test; details: male white Guinea pigs, anesthesized; V. jugularis; asthmogenic agent not specified
Description: as §1, §2, §3, §4, §5

[2] = system: spasm caused by acetylcholine; assay: Bronchospasmolytic activity, modified Konzett-Rossler test, acetylcholine-induced bronchospasm; details: dose inhibiting effect of asthmogenic agent to 50% of initial value, male white Guinea pigs, anesthesized, V. jugularis
Description: as §1, §2, §3, §4
as §5, with “Additionally, the results obtained by carrying out a simple variance analysis in the Duncan Test were compared with the control.” left out

[3] = system: spasm initiated by serotonin; assay: Bronchospasmolytic activity, modified Konzett-Rossler test, serotonin-induced bronchospasm; details: dose inhibiting effect of asthmogenic agent to 50% of initial value, male white Guinea pigs, anesthesized, V. jugularis
Description: as §1, §2, §3
as §4, with “The substance to be tested was used in the form of a standard solution in absolute alcohol. Directly prior to the start of the test it was diluted to the required final concentration with phosphate buffer (pH 7.4). The asthmogenic solution was prepared with double distilled water.” left out
As asthmogenic agents histamine dihydrochloride, acetyl choline chloride and sertonine creatinine sulfate were used. […] The experimental data were subjected to the regression analysis according to the probit transformation and the equation of the straight lines of regression y=a+b log x was calculated. […]

SMILES	ID50 values histamine [1] [ng/animal]	duration of effect (bronchial muscles) [min]	ID50 values acetylcholine [2] [ng/animal]	ID50 values serotonin [3] [ng/animal]
CCCCC[C@H](O)/C=C/[C@H]1CCC(=O)[C@@H]1CCC(C)CCCC(=O)OC1CCCCC1 (stereo partly shown) [Example 6, 5-Methyl-10,11-dihydroprostaglandin-A1 cyclohexyl ester]	7.5	60	–	–
CCCCC[C@H](O)/C=C/[C@H]1CCC(=O)[C@@H]1CCC(C)CCCC(=O)OCCOCC (stereo partly shown) [Example 7, 5-Methyl-10,11-dihydroprostaglandin-A1-2-ethoxyethyl ester]	0.4	10 to 20	0.88	0.86
CCCCC[C@H](O)/C=C/[C@H]1CCC(=O)[C@@H]1CCC(C)CCCC(=O)OCCCc1ccccc1 (stereo partly shown) [Example 9, 5-Methyl-10,11-dihydroprostaglandin-A1-3-phenylpropyl ester]	1	25	–	–
CCCCC[C@H](O)/C=C/[C@H]1CCC(=O)[C@@H]1CCC(C)CCCC(=O)OCCCC(C)(C)C (stereo partly shown) [Example 4]	7	20 to 25	–	–
CCCCC[C@H](O)/C=C/[C@H]1CCC(=O)[C@@H]1CCC(C)CCCC(=O)OCCCC (stereo partly shown) [Example 3, 5-Methyl-10,11-dihydroprostaglandin-A1 n-butyl ester]	0.63	15 to 20	6.9	1.2
CCCCCCCCCCOC(=O)CCCC(C)CC[C@H]1C(=O)CC[C@@H]1/C=C/[C@@H](O)CCCCC (stereo partly shown) [Example 2, 5-Methyl-10,11-dihydroprostaglandin-A1 n-decyl ester]	4.2	30 to 45	–	–
CCCCCCOC(=O)CCCC(C)CC[C@H]1C(=O)CC[C@@H]1/C=C/[C@@H](O)CCCCC (stereo partly shown) [Example 1, 5-Methyl-10,11-dihydroproxtaglandin-A1 n-hexyl ester]	1	30	3	–
CCCCC[C@H](O)/C=C/[C@H]1CCC(=O)[C@@H]1CCC(C)CCCC(=O)O (stereo partly shown) [comp. II, 5-methyl-10,11-dihydroprostaglandin-A1]	5	–	10	9
